The subject of the assay is APC2, p55Cdc20, cyclins A and E, APC7, APC8. Briefly: Immunoblotting of APC/C subunits and other cell cycle related proteins in DAOY cells. Type of assay: cell-based, human. The note with it: control vs curcumin-treated DAOY cells, immunoblot. On the procedure: Cell lysates were prepared in a buffer containing 20 mM Tris (pH 7.5), 150 mM NaCl, 1 mM EDTA, 1 mM EGTA, 0.1% Triton X-100, 2.5 mM sodium pyrophosphate, 1 mM β-glycerol phosphate, 1 mM sodium vanadate, 1 mM phenylmethylsulfonyl fluoride and 5 μg/ml of antipapain, leupeptin and pepstatin (protease inhibitor cocktail). Protein concentrations were determined by the Dc protein assay (Bio-Rad, Hercules, Calif.). Equal amounts of protein were resolved by SDS-PAGE and transferred to nitrocellulose. The membranes were blocked in 5% non-fat milk in Tris-buffered saline with 0.1% […] (TBST). Primary antibodies diluted in 5% bovine serum albumin/TBST were incubated overnight at 4° C. and HRP-conjugated secondary antibodies in 5% non-fat milk/TBST for 2 hours at room temperature. Protein bands were visualized by Enhanced Chemiluminescence Plus (GE Healthcare, Piscataway, N.J.).
Cell lysates were prepared in a buffer containing 20 mM Iris (pH 7.5), 150 mM NaCl, 1 mM EDTA, 1 mM EGTA, 0.1% Triton X-100, 2.5 mM sodium pyrophosphate, 1 mM β-glycerol phosphate, 1 mM sodium vanadate, 1 mM phenylmethylsulfonyl fluoride and 5 μg/ml of antipapain, leupeptin and pepstatin (protease inhibitor cocktail). Protein concentrations were determined by the Dc protein assay (Bio-Rad, Hercules, Calif.). Equal amounts of protein were resolved by SDS-PAGE and transferred to nitrocellulose. […]
In general terms: A western blot detects proteins with antibodies after separation by electrophoresis.

For `COc1cc(/C=C/C(=O)CC(=O)/C=C/c2ccc(O)c(OC)c2)ccc1O` [Curcumin, (E,E)-1,7-bis(4-hydroxy-3-methoxyphenyl)-1,6-heptadiene-3,5-dion], the “expression of cyclin A and E” value is “No noticeable changes”; the “levels of APC2 and p55Cdc20” value was “comparable in control and curcumin-treated cells”.

(Values after patent US8835124B2, “Method for treating cancer with agents that bind phosphorylated CDC27” (The Nemours Foundation, priority 2011, dated 2014).)
